This assay concerns B cell receptor-mediated activation of B cells in human whole blood (CD69 expression). The experiment in a line: cells. The note with it: 20 h, read-out: HWB IC50. How it is done: After the incubation the plates were read on a BMG Pherastar Fluorescent plate reader (or equivalent) and used to measure the emission energy from the europium donor fluorophore (620 nm emission) and the FRET (665 nm emission). The negative control well values were averaged to obtain the mean minimum. The positive “no inhibitor” control wells were averaged to obtain the mean maximum. […] The mean IC50 and standard deviation will be derived from duplicate curves (singlet inhibition curves from two independent dilutions) using Microsoft Excel. Inhibition of B Cell Activation in Whole Blood Measured by CD69 Expression
Human whole blood (HWB) is obtained from healthy volunteers, with the following restrictions: 24 hr drug-free, non-smokers. Blood is collected by venipuncture into Vacutainer tubes anticoagulated with sodium heparin. Test compounds are diluted to ten times the desired starting drug concentration in PBS (20×), followed by three-fold serial dilutions in 10% DMSO in PBS to produce a nine point dose-response curve. […] HWB (100 μl) is added to each well, and after mixing the plates are incubated at 37 C, 5% CO2, 100% humidity for 30 minutes. […]
Using appropriate excitation and emission wavelengths for the fluorophores used, data are acquired and percent positive cell values are obtained using Cell Quest Software. Results are initially analyzed by FACS analysis software (Flow Jo).

Data on 2 compounds can be found in US9556147B2 (Hoffmann-La Roche Inc., priority 2013, dated 2017).

pIC50: −log10 of the molar value.

As to `CN1CCC[C@H]1c1ccc(Nc2cc3c(n(C)c2=O)CC(O)Cc2c-3cccc2-n2ncc3cc(C(C)(C)C)cc(F)c3c2=O)nc1` (some centres unmarked) [Compound 2], the pIC50 (commonly the IC50 on a negative log10 scale, so that one unit is a factor of ten) is 7.31. To `Cn1c2c(cc(Nc3ccc(C(=O)N4CCOCC4)cn3)c1=O)-c1cccc(-n3ncc4cccc(F)c4c3=O)c1C[C@H](O)C2` [Compound 6] belongs 5.36.
